Assay results: patent US20150224164A1, “TREATMENT OF AUTISM SPECTRUM DISORDERS USING GLYCYL-L-2-METHYLPROLYL-L-GLUMATIC ACID” (Neuren Pharmaceuticals Limited, priority 2013, published 2015)
Where a SMILES comes first, the peptide text is derived from it.

Assays:
[1] = tested on: Tbx1 heterozygous, Cntnap2 knockout, Slc9a6 knockout and fmr1 knockout mouse; assay: Genetic models of ASD: Tbx1, Cntnap2, Slc9a6, fmr1 mice (Example 17); type: in vivo; details: 20 mg/kg/day i.p.
Protocol: Animals in each of the above models are generated in accordance with the methodology described in the cited literature. Wild type equivalents are also obtained for each genetic model. Animals in each model are divided into three groups (n=10 to n=20): placebo treated wild type mice, mutant G-2-MePE-treated group and mutant placebo-treated control group. The treatments are administered intraperitoneally: placebo (saline) or 20 mg/kg/day of G-2-MePE.

fmr1 knockout mice = assay: Species typical behaviors: marble burying and nest building; type: in vivo, mouse; details: 100 mg/kg i.p. 28 days
12-month old rats = assay: Morris water maze, spatial reference memory; type: in vivo, rat; details: 0.96 or 4.8 mg/day s.c. mini-osmotic pump, vs saline
Protocol: We used male Wistar rats 12, 8 or 4 months of age. The Morris water maze test was conducted using a black plastic pool filled to a depth of 25 cm with water colored black with a non-toxic dye. […] The platform remained in that position though the training. The experiment used extra-maze cues (i.e. objects in the room surrounding the pool) that the rats could use to navigate to the platform. Distinctive posters or paintings were hung on the walls. Furniture in the room was not moved during the testing period. The placement of the pool allowed the experimenter an easy access to it from all sides. The pool was emptied and refilled daily during testing, with water at 25° C.+/-2° C. Rats in each group were trained to swim to the submerged platform. The rats received six 60-second trials per day for four consecutive days. A trial began by placing the rat into the water facing the wall of the pool, at one of four start locations (north, south, east, west). The sequence of start locations was chosen pseudorandomly, so that the start location of any given trial was different from that of the previous trial, and no start location was used more than twice during daily training. […] The swim latency for each rat was recorded for each trial for each day of the acquisition and retention phases and changes between phases were examined using Analysis of Variance.

For `C[C@@]1(C(=O)N[C@@H](CCC(=O)O)C(=O)O)CCCN1C(=O)CN` [Example G-2-MePE, Glycyl-L-2-methylprolyl-L-glutamic acid] (HELM PEPTIDE1{G.[C[C@@]1(C(=O)[*:2])CCCN1[*:1]].E}$$$$V2.0), the “measures associated with the ASD phenotype” value [1] was “significantly improves all measures”, the marble burying behavior (fmr1 knockout mice; fmr1 KO) was “normalized marble burying behavior” and the nest building behavior (fmr1 knockout mice; fmr1 KO) was “increased both marble burying and nest building behaviors”. For the same compound, the marble burying (fmr1 knockout mice; wild-type mice) was “no significant effect” and the “memory: time needed to reach the platform, retention phase” value (12-month old rats) was “improved memory”.
